The results in this text go back to patent US5994342A, “3-(substituted methyl)-4-oxa-1-azabicyclo[3.2.0]heptan-7-one derivatives useful as antitumor agents” (priority 1994, dated 1999).

In brackets after ≈: the same amount, converted by molar mass.

One series deals with KB cells. Nature of the series: In vitro KB cell cytotoxicity assay (crystal violet). In kind it is cell-based. Particulars: Homo sapiens, 72 h, 3 days culture, read-out: KB Cell Cytotoxicity TD50. Here is the method:
In Vitro KB Cell Cytotoxicity Assay In vitro KB cell cytoxocity assay was done by modification of the crystal violet assay ([…] et al., Anal Biochem., 159, 109-113 (1986). KB cells were cultivated in Eagles minimum essential medium supplemented with 10% calf serum and incubated at 37° C. in a humidified 5% CO2 atmosphere to prepare a cell stock. Cells were counted using a neubauer hemocytometer and seeded in 96 well plates at 100 μl of 3×10^4 cells/ml and cultured for one day. […] Control wells were identical except that test compound was absent. These were cultured for three days. Then the cells were fixed with addition of 20 μl of 25% glutaraldehyde for 15 minutes, washed with water and dried. Then stained with 100 μl of 0.05% crystal violet for 15 minutes, washed with water and dried. The wells are eluted with […] of 0.05M NaH2 PO4 /ethanol (1:1 v/v) and read at OD540 on a multiscan spectrophotometer. Inhibition value of cell growth was calculated based on optical density using the following equation; [formula] TD50 values were calculated from linear regression ines of the log-logit plot.

In another series the test system is Sarcoma 180. Briefly: In vivo antitumor activity against Sarcoma 180. Set-up: species or system male ICR mice. Particulars: i.p., days 1, 5 and 9. As for the experimental part: In Vivo Antitumor Activity Against Sarcoma 180
The compounds of general formula (I) were tested in vivo against Sarcoma 180 xenografted tumor to mice as illustrated herein after.
Sarcoma 180, 5×10^6 cells were inoculated by S.C. to male ICR mice (6 week old) on day 0. Drugs were administered on days 1, 5 and 9. Mice were killed and tumor weight was measured on day 12 after transplantation. The percentage inhibition of tumor growth was calculated from the mean tumor weight of the treated group compared with that of the control group. Number of mice used in each group was between 6 to 7.

[1] abbreviates: Mus musculus, Sarcoma-180, ip, 288 h, 12.5 mg/kg/day, tumor s.c., tumor weight day 12, read-out: % Inhibition of tumor growth.
The mark [2] stands for this setting: Mus musculus, Sarcoma-180, ip, 288 h, 25 mg/kg/day, tumor s.c., tumor weight day 12, read-out: % Inhibition of tumor growth.
[3] abbreviates: Mus musculus, Sarcoma-180, ip, 288 h, 50 mg/kg/day, tumor s.c., tumor weight day 12, read-out: % Inhibition of tumor growth.
[4] abbreviates: Mus musculus, Sarcoma-180, ip, 288 h, 100 mg/kg/day, tumor s.c., tumor weight day 12, read-out: % Inhibition of tumor growth.

Take `C[C@H](N)C(=O)NCC(=O)OC[C@H]1CN2C(=O)C[C@@H]2O1.Cl` (mixture of isomers) [Example 41B, (3RS,5SR)-3-[N-(L-2-Aminopropanoyl)aminoacetyl]oxymethyl-4-oxa-1-azabicyclo[3.2.0]heptan-7-one hydrochloride]: the IC50 in the series with KB cells is 0.295 mg/L. Besides, the “Mortality in 12 days” value in the series with Sarcoma 180 (12.5 mg/kg/day) and in the series with Sarcoma 180 (25 mg/kg/day) was 0/6 each time. For the same molecule, the inhibition in vivo at 12.5 mg/kg with Sarcoma 180 (setting [1]) was determined as 43.9%. For the same molecule, the inhibition in vivo at 25 mg/kg in the series on Sarcoma 180 (setting [2]) was found to be 62.8%.
As to `CC(C)[C@H](N)C(=O)NCC(=O)OC[C@H]1CN2C(=O)C[C@@H]2O1.Cl` (mixture of isomers) [Example 42B, (3RS,5SR)-3-[N-(L-2-Amino-3-methylbutyryl)aminoacetyl]oxymethyl-4-oxa-1-azabicyclo[3.2.0]heptan-7-one hydrochloride], in the series on KB cells, the IC50 was determined as 0.388 mg/L. The “Mortality in 12 days” value in the series on Sarcoma 180 (12.5 mg/kg/day), with Sarcoma 180 (25 mg/kg/day) and with Sarcoma 180 (50 mg/kg/day) was 0/6 each time. The inhibition in vivo at 12.5 mg/kg in the series on Sarcoma 180 (setting [1]) stood at 49.9%. Also, in the series on Sarcoma 180 (setting [2]), the inhibition in vivo at 25 mg/kg was found to be 69%. The inhibition in vivo at 50 mg/kg in the series with Sarcoma 180 (setting [3]) was 85.8%.
Take `CC(C)[C@H](N)C(=O)NCC(=O)NC[C@@H]1CN2C(=O)C[C@H]2O1.Cl` (mixture of isomers) [Example 45B, (3RS,5RS)-3-[N-(L-2-amino-3-methylbutyryl)aminoacetyl]aminomethyl-4-oxa-1-azabicyclo[3.2.0]heptan-7-one hydrochloride]: the IC50 in the series with KB cells is 1.97 mg/L. Also, the “Mortality in 12 days” value in the series with Sarcoma 180 (25 mg/kg/day) and in the series with Sarcoma 180 (50 mg/kg/day) was 0/6 in each case. For the same molecule, the inhibition in vivo at 25 mg/kg in the series with Sarcoma 180 (setting [2]) turned out to be 39.3%. Moreover, the inhibition in vivo at 50 mg/kg with Sarcoma 180 (setting [3]) was 81.7%.
On to `C[C@H](N)C(=O)OC[C@H]1CN2C(=O)C[C@@H]2O1.Cl` (mixture of isomers) [Example 48B, (3RS,5SR)-3-(L-2-Aminopropanoyl)oxymethyl-4-oxa-1-azabicyclo[3.2.0]heptan-7-one hydrochloride], for which, in the series on KB cells, the IC50 was determined as 0.878 mg/L. Besides, the “Mortality in 12 days” value in the series with Sarcoma 180 (12.5 mg/kg/day) is given as 0/6; in the series with Sarcoma 180 (25 mg/kg/day), 0/6; in the series on Sarcoma 180 (50 mg/kg/day) it was 2/6. In addition, the inhibition in vivo at 12.5 mg/kg in the series with Sarcoma 180 (setting [1]) came out at 44.9%. Besides, in the series with Sarcoma 180 (setting [2]), the inhibition in vivo at 25 mg/kg was 66.8%. The inhibition in vivo at 50 mg/kg in the series on Sarcoma 180 (setting [3]) amounted to 77.3%.
As for `C[C@@H](N)C(=O)OC[C@H]1CN2C(=O)C[C@@H]2O1.Cl` (mixture of isomers) [Example 51B, (3RS,5SR)-3-(D-2-Aminopropanoyl)oxymethyl-4-oxa-1-azabicyclo[3.2.0]heptan-7-one hydrochloride], the IC50 with KB cells is 0.867 mg/L. In addition, the “Mortality in 12 days” value was 0/6 in the series on Sarcoma 180 (12.5 mg/kg/day), 0/6 in the series on Sarcoma 180 (25 mg/kg/day), 0/6 in the series on Sarcoma 180 (50 mg/kg/day) and 5/6 in the series on Sarcoma 180 (100 mg/kg/day). For the same molecule, in the series on Sarcoma 180 (setting [1]), the inhibition in vivo at 12.5 mg/kg was found to be 40.9%. The inhibition in vivo at 25 mg/kg in the series with Sarcoma 180 (setting [2]) was determined as 50.6%. The inhibition in vivo at 50 mg/kg in the series with Sarcoma 180 (setting [3]) worked out at 82.4%. Besides, the inhibition in vivo at 100 mg/kg in the series on Sarcoma 180 (setting [4]) is 93.8%.
As for `CC(C)[C@H](N)C(=O)OC[C@H]1CN2C(=O)C[C@@H]2O1.Cl` (mixture of isomers) [Example 54B, (3RS,5SR)-3-(L-2-Amino-3-methylbutyryl)oxymethyl-4-oxa-1-azabicyclo[3.2.0]heptan-7-one hydrochloride], the IC50 with KB cells was 1.9 mg/L. Also, the “Mortality in 12 days” value in the series on Sarcoma 180 (25 mg/kg/day), in the series on Sarcoma 180 (50 mg/kg/day) and with Sarcoma 180 (100 mg/kg/day) was 0/6 in each case. Also, in the series on Sarcoma 180 (setting [2]), the inhibition in vivo at 25 mg/kg was found to be 28.5%. The inhibition in vivo at 50 mg/kg in the series with Sarcoma 180 (setting [3]) is 53.8%. The inhibition in vivo at 100 mg/kg with Sarcoma 180 (setting [4]) is 84.3%.
Consider `CC(C)[C@@H](N)C(=O)OC[C@H]1CN2C(=O)C[C@@H]2O1.Cl` (mixture of isomers) [Example 60B, (3RS,5SR)-3-(D-2-Amino-3-methylbutyryl)oxymethyl-4-oxa-1-azabicyclo[3.2.0]heptan-7-one hydrochloride], for which the IC50 with KB cells is 0.903 mg/L. Further, the “Mortality in 12 days” value in the series on Sarcoma 180 (50 mg/kg/day) and with Sarcoma 180 (100 mg/kg/day) was 0/6 each time. The inhibition in vivo at 50 mg/kg with Sarcoma 180 (setting [3]) came out at 49.8%. In addition, in the series with Sarcoma 180 (setting [4]), the inhibition in vivo at 100 mg/kg came out at 77.7%.
With `N[C@@H](CC(=O)OC[C@H]1CN2C(=O)C[C@@H]2O1)C(=O)O` (mixture of isomers) [Example 65B, (3RS,5SR)-3-(L-3-Amino-3-carboxypropanoyl)oxymethyl-4-oxa-1-azabicyclo[3.2.0]heptan-7-one], the IC50 in the series with KB cells was 0.451 mg/L. Moreover, the “Mortality in 12 days” value in the series with Sarcoma 180 (100 mg/kg/day) is reported as 0/6. Moreover, in the series with Sarcoma 180 (setting [4]), the inhibition in vivo at 100 mg/kg is 55%.
In the case of `N[C@@H](CC(=O)O)C(=O)OC[C@H]1CN2C(=O)C[C@@H]2O1` (mixture of isomers) [Example 66B, (3RS,5SR)-3-(L-2-Amino-3-carboxypropanoyl)oxymethyl-4-oxa-1-azabicyclo[3.2.0]heptan-7-one], the IC50 in the series on KB cells came out at 0.204 mg/L. For the same molecule, the “Mortality in 12 days” value in the series with Sarcoma 180 (6.3 mg/kg/day), in the series with Sarcoma 180 (12.5 mg/kg/day) and in the series with Sarcoma 180 (25 mg/kg/day) was 0/6 throughout. The inhibition in vivo at 6.3 mg/kg in the series on Sarcoma 180 (Mus musculus, Sarcoma-180, ip, 288 h, 6.3 mg/kg/day, tumor s.c., tumor weight day 12, read-out: % Inhibition of tumor growth) stood at 33.7%. In addition, in the series with Sarcoma 180 (setting [1]), the inhibition in vivo at 12.5 mg/kg was determined as 53.2%. Besides, in the series with Sarcoma 180 (setting [2]), the inhibition in vivo at 25 mg/kg was found to be 62.9%.
In the case of `N[C@H](CCC(=O)OC[C@H]1CN2C(=O)C[C@@H]2O1)C(=O)O` (mixture of isomers) [Example 68B, (3RS,5SR)-3-(D-4-Amino-4-carboxybutyryl)oxymethyl-4-oxa-1-azabicyclo[3.2.0]heptan-7-one], the IC50 in the series on KB cells was 0.189 mg/L. The “Mortality in 12 days” value in the series with Sarcoma 180 (12.5 mg/kg/day) is recorded as 0/6; with Sarcoma 180 (25 mg/kg/day), 0/6; with Sarcoma 180 (50 mg/kg/day) it was 3/6. In the series with Sarcoma 180 (setting [1]), the inhibition in vivo at 12.5 mg/kg was found to be 49.1%. Further, in the series on Sarcoma 180 (setting [2]), the inhibition in vivo at 25 mg/kg turned out to be 69.7%. Further, the inhibition in vivo at 50 mg/kg in the series with Sarcoma 180 (setting [3]) was found to be 80.3%.
Take `CCCCCC(=O)NC[C@@H]1CN2C(=O)C[C@H]2O1` (racemic) [Example 4, (3RS,5RS)-3-(N-Hexanoylaminomethyl)-4-oxa-1-azabicyclo[3.2.0]heptan-7-one]: the IC50 in the series with KB cells is 0.312 mg/L (≈ 1.3 µM). In addition, in the series on Sarcoma 180 (100 mg/kg/day), the “Mortality in 12 days” value is listed as 0/6. For the same molecule, the inhibition in vivo at 100 mg/kg in the series with Sarcoma 180 (setting [4]) amounted to 49.4%.
Consider `O=C(NC[C@@H]1CN2C(=O)C[C@H]2O1)C1CCCCC1` (racemic) [Example 6, (3RS,5RS)-3-(N-Cyclohexylcarbonylaminomethyl)-4-oxa-1-azabicyclo[3.2.0]heptan-7-one], for which the IC50 in the series on KB cells turned out to be 0.073 mg/L (≈ 0.289 µM). The “Mortality in 12 days” value with Sarcoma 180 (20 mg/kg/day), in the series on Sarcoma 180 (40 mg/kg/day) and in the series on Sarcoma 180 (80 mg/kg/day) was 0/6 in each case. The inhibition in vivo at 20 mg/kg in the series with Sarcoma 180 (Mus musculus, Sarcoma-180, ip, 288 h, 20 mg/kg/day, tumor s.c., tumor weight day 12, read-out: % Inhibition of tumor growth) is 32.1%. In the series with Sarcoma 180 (Mus musculus, Sarcoma-180, ip, 288 h, 40 mg/kg/day, tumor s.c., tumor weight day 12, read-out: % Inhibition of tumor growth), the inhibition in vivo at 40 mg/kg amounted to 35.7%. Further, in the series with Sarcoma 180 (Mus musculus, Sarcoma-180, ip, 288 h, 80 mg/kg/day, tumor s.c., tumor weight day 12, read-out: % Inhibition of tumor growth), the inhibition in vivo at 80 mg/kg stood at 43.3%.
As to `O=C1C[C@H]2O[C@H](CNC(=O)C(F)(F)F)CN12` (racemic) [Example 7, (3RS,5RS)-3-[N-(Trifluoroacetyl)aminomethyl]-4-oxa-1-azabicyclo[3.2.0]heptan-7-one], in the series on KB cells, the IC50 came to 0.205 mg/L (≈ 0.861 µM). Further, the “Mortality in 12 days” value in the series on Sarcoma 180 (100 mg/kg/day) is given as 2/6. Further, the inhibition in vivo at 100 mg/kg in the series on Sarcoma 180 (setting [4]) worked out at 39.8%.
